From US12509451B2, “Heteroaryl amide inhibitors of CD38” (NAPA THERAPEUTICS LTD., priority 2020, dated 2025)
Each block holds one molecule with its values, some of them ahead of it.

What was measured:
[1] = target: T1, CD38 (Mus musculus, UniProt P56528); assay: In vivo efficacy against CD38 in aged mice, single oral dose, liver NAD+ metabolites
T1 construct: aged mice (male C57BL6/J, 22 months old) were fasted for 4 hr; from tissue; host or cells: C57BL6/J mice (aged, DIO obese or LPS-challenged); liver, spleen, plasma
T1 sequence (P56528 1-304): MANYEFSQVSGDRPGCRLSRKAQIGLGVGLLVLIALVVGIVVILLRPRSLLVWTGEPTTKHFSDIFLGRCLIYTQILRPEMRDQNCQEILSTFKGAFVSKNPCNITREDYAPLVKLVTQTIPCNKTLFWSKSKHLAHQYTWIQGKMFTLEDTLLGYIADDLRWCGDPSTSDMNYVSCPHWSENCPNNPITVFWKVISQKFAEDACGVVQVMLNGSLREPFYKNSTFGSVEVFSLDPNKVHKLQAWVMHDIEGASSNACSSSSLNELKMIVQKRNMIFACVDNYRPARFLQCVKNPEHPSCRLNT
Experimental: The in vivo efficacy of Compound 35 against the human CD38 enzyme was tested in aged mice after oral administration and determined by mass spec analysis of NAD+ metabolites levels in liver tissue. The two main CD38 substrates, NAD+ and NMN, and the 2 main byproducts of the CD38 enzymatic reaction, NAM and ADPR, were measured.
Briefly, aged mice (male C57BL6/J, 22 months old) were fasted for 4 hr and compound 35 was administered via oral gavage at a concentration of 3 mg/kg and 10 mg/kg. Mice were humanely euthanized for liver tissue harvesting at 1-, 3-, and 6-hr post-dosing. A vehicle control (DMSO:Solutol: SBE-CD, 2:5:93, v/v) was included to assess baseline NAD+ metabolites levels.
The procedure for tissue sample preparation and UPLC-MS/MS methods were adapted from Trammell et al. (2013) Compu. Struct. Biotechnol. J. […] (https://www.ncbi.nlm.nih.gov/pmc/articles/PMC3962138/). Briefly, frozen liver tissue was pulverized and resuspended in the extraction buffer (3:1 ethanol:10 mM aq. HEPES, pH 7.1). The samples were vortexed, sonicated briefly in a bath sonicator, and shaken at 55° C. for 3 min at 1,200 rpm. Samples were then centrifuged at 16,000×g for 10 min at 4° C., and the supernatant was dried by speedvac. The dried pellet was resuspended in 97% 10 mM ammonium acetate/3% acetonitrile, centrifuged at 16,000×g for 10 min at 4° C. and 2 μL was injected for LCMS analysis.
The UPLC-MS/MS analysis to measure NAD+ metabolites was performed using a Vanquish UHPLC system and a Q Exactive Orbitrap mass spectrometer with H-ESI ion source both from Thermo Scientific. UPLC separation was performed on a Hypercarb (2.1×100 mm, 5 μm particle size, Thermo) column following the method described in Trammell et al. (2013). Acquisition was carried out in positive ion, Parallel Reaction Monitoring (PRM) mode and targeted […] (t-SIM). The Thermo Xcalibur QualBrowser system software (version 4.2.47) and Freestyle (version 1.8.51.0) softwares was used for the data processing. For relative fold change, peak areas were normalized with respective internal standards, normalized to weight of the tissue sample used, and calculated as fold change relative at 0 h timepoint/vehicle group.

[2] = target: T2, human CD38 enzyme in primary human CD4+ T cells (Homo sapiens, UniProt P28907); assay: NAD+ hydrolase activity assay in primary human activated CD4+ T cells (Assay 7); assay type: cell-based; conditions: primary human CD4+ T cells activated with anti-CD3/CD28
T2 construct: whole primary human CD4+ T cells (from healthy donors); endogenous in cells
T2 sequence (P28907 1-300): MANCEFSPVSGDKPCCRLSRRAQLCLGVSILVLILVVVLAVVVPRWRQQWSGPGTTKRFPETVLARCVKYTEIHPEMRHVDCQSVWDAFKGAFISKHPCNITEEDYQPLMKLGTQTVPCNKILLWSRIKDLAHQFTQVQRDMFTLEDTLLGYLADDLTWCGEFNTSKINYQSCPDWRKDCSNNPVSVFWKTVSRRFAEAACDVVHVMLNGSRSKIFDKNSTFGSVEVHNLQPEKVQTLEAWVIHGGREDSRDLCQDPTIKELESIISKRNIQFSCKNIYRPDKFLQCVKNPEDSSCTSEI
Experimental: The in vitro potency of Compound 35 against the human CD38 enzyme was determined by a fluorescence-based NAD+ hydrolase activity assay using the NAD+ analog nicotinamide 1,N^6-etheno-adenine dinucleotide (εNAD+) as substrate. The assay utilized: 1) whole primary human CD4+ T cells (from healthy donors) activated with anti-CD3/CD28 antibodies and expressing human CD38; or II) whole primary human macrophages (from healthy donors) stimulated with LPS to polarize in a pro-inflammatory M1 state expressing human CD38. The cells were incubated in the presence of 8 different concentrations of Compound 35 for 10 minutes and the reaction was started adding the substrate εNAD+. The emission of fluorescence was measured at 410-20 nm at 37° C. every minute for 1 hr. The NAD+ hydrolase activity was calculated as the slope of the linear portion of the fluorescence-time curve and used to calculate the IC50 value.

[3] = target: T1, CD38; assay: LPS-induced inflammation in mice, gene expression analysis in spleen and liver; assay type: in vivo

ADPR levels in liver ([1]; single 3 mg/kg oral dose): decrease | NAD+ levels in liver ([1]; single 3 mg/kg oral dose): increase | NAM levels in liver ([1]; single 3 mg/kg oral dose): decrease | NMN levels in liver ([1]; single 3 mg/kg oral dose): increase | ADPR levels in liver ([1]; single 10 mg/kg oral dose): decrease | NAD+ levels in liver ([1]; single 10 mg/kg oral dose): increase | NAM levels in liver ([1]; single 10 mg/kg oral dose): decrease | NMN levels in liver ([1]; single 10 mg/kg oral dose): increase | IC50 [2]: 0.179 nM
SMILES: COc1cc(C(=O)Nc2ccnc(C(F)(F)F)c2)nc(-n2ccnc2)c1 [Compound 35, 6-(1H-imidazol-1-yl)-4-methoxy-N-(2-(trifluoromethyl)pyridin-4-yl)picolinamide]

CD38 expression in liver ([3]; liver, 10 mg/kg and 30 mg/kg, 8 hour post LPS challenge): statistically significant decrease | IFNγ expression levels in liver ([3]; liver, after LPS challenge): statistically significant decrease | IL-1β expression levels in liver ([3]; liver, after LPS challenge): statistically significant decrease | IL-6 expression levels in liver ([3]; liver, after LPS challenge): statistically significant decrease | IP-10 expression levels in liver ([3]; liver, after LPS challenge): statistically significant decrease | MCP1 expression levels in liver ([3]; liver, after LPS challenge): statistically significant decrease | MIP1α expression levels in liver ([3]; liver, after LPS challenge): statistically significant decrease | MIP2 expression levels in liver ([3]; liver, after LPS challenge): statistically significant decrease | RANTES expression levels in liver ([3]; liver, after LPS challenge): statistically significant decrease | TNFα expression levels in liver ([3]; liver, after LPS challenge): statistically significant decrease | CD38 expression in spleen ([3]; spleen, after LPS challenge): no significant changes | IFNγ expression levels in spleen ([3]; spleen, after LPS challenge): statistically significant decrease | IL-1β expression levels in spleen ([3]; spleen, after LPS challenge): statistically significant decrease | IL-6 expression levels in spleen ([3]; spleen, after LPS challenge): statistically significant decrease | IP-10 expression levels in spleen ([3]; spleen, after LPS challenge): statistically significant decrease | MCP1 expression levels in spleen ([3]; spleen, after LPS challenge): statistically significant decrease | MIP1α expression levels in spleen ([3]; spleen, after LPS challenge): statistically significant decrease | MIP2 expression levels in spleen ([3]; spleen, after LPS challenge): statistically significant decrease | RANTES expression levels in spleen ([3]; spleen, after LPS challenge): statistically significant decrease | TNFα expression levels in spleen ([3]; spleen, after LPS challenge): statistically significant decrease
SMILES: COCCOc1cc(C(=O)Nc2ccnc(C(F)(F)F)c2)nc(-n2ccnc2)n1 [Compound 39, 2-(1H-imidazol-1-yl)-6-(2-methoxyethoxy)-N-(2-(trifluoromethyl)pyridin-4-yl)pyrimidine-4-carboxamide]
